# Source: patent US11192891B2, “Diazaspiro ROCK inhibitors” (BRISTOL-MYERS SQUIBB COMPANY, priority 2017, dated 2021)
# Target: ROCK2 (Homo sapiens, UniProt O75116)
# Assay: ROCK kinase inhibition assay, FITC peptide substrate, LABCHIP 3000 readout
# Assay type: biochemical
# Settings: 5 μM ATP, 1.5 μM peptide substrate
# Description: Compounds were dissolved in DMSO so that the final concentration of DMSO was <2%, and the reaction was initiated with Rho kinase variants. After incubation, the reaction was terminated by the addition of EDTA and the phosphorylated and non-phosphorylated peptides separated using a LABCHIP® 3000 Reader (Caliper Life Sciences). […] Compounds were tested in dose-response format, and the inhibition of kinase activity was calculated at each concentration of compound.
# Chain of ROCK2 (O75116 whole entry, species assumed): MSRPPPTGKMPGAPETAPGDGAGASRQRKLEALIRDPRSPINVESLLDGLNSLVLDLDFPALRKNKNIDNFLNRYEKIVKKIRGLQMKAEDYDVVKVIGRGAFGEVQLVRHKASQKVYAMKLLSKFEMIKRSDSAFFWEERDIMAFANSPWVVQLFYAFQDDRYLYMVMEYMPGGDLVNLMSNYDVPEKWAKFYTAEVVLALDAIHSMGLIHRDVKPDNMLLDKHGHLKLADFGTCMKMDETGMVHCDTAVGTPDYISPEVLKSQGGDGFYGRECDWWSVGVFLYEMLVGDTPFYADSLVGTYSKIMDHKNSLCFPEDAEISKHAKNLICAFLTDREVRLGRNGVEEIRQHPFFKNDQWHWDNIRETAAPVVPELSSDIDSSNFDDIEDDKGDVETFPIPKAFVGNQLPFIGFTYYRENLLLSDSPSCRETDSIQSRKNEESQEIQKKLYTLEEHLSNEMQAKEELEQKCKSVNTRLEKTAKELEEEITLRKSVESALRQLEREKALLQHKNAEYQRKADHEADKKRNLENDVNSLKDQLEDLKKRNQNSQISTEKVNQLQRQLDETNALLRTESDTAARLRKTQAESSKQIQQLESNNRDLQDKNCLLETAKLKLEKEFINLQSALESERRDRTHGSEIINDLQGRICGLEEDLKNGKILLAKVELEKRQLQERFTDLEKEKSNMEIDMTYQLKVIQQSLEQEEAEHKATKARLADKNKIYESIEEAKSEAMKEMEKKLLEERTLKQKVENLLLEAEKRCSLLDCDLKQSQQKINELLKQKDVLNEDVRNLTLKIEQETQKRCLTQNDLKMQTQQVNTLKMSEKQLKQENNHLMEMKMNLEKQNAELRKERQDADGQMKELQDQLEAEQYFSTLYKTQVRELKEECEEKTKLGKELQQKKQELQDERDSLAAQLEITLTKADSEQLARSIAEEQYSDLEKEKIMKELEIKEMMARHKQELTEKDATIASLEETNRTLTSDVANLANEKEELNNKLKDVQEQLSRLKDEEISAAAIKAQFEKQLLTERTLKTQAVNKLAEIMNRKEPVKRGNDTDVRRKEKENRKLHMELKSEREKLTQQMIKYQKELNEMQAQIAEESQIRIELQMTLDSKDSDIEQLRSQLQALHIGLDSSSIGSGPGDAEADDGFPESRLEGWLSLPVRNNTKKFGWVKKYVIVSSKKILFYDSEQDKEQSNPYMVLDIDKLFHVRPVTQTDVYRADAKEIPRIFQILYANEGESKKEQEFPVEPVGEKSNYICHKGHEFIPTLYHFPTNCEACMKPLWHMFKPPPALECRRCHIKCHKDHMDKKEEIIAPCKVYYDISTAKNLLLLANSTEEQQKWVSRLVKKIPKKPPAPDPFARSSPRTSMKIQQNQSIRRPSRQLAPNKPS
row,SMILES,IC50
1,"COc1ccc(C(=O)N2CCC3(CC2)CC(=O)N(c2ccc(-c4cn[nH]c4)c(OC)c2)C3)cc1 [Example 47, 2-[3-methoxy-4-(1H-pyrazol-4-yl)phenyl]-8-(4-methoxybenzoyl)-2,8-diazaspiro[4.5]decan-3-one]",306 nM
2,"COc1cc(N2CCC3(CCN(C(=O)c4ccc5nc(-c6ccncc6)[nH]c5c4)CC3)C2=O)ccc1-c1cn[nH]c1 [Example 182, 2-[3-methoxy-4-(1H-pyrazol-4-yl)phenyl]-8-[2-(pyridin-4-yl)-1H-1,3-benzodiazole-6-carbonyl]-2,8-diazaspiro[4.5]decan-1-one]",16 nM
3,"COc1cc(N2CCC3(CCN(C(=O)c4ccc(N5CCN(C6CCN(C)CC6)CC5)cc4)CC3)C2=O)ccc1-c1cn[nH]c1 [Example 244, 2-[3-methoxy-4-(1H-pyrazol-4-yl)phenyl]-8-{4-[4-(1-methylpiperidin-4-yl)piperazin-1-yl]benzoyl}-2,8-diazaspiro[4.5]decan-1-one]",0.9 nM
4,"COc1cccc(C(=O)N2CCC3(CCN(c4ccc(-c5cn[nH]c5)cc4)C3=O)C2)c1 (stereo not drawn) [Example 44, 7-(3-methoxybenzoyl)-2-[4-(1H-pyrazol-4-yl)phenyl]-2,7-diazaspiro[4.4]nonan-1-one]",444 nM
5,"COc1cc(N2CCC3(CCN(C(=O)c4ccc(N5CCCCS5(=O)=O)cc4)CC3)C2=O)ccc1-c1cn[nH]c1 [Example 192, 8-(4-(1,1-dioxido-1,2-thiazinan-2-yl)benzoyl)-2-(3-methoxy-4-(1H-pyrazol-4-yl)phenyl)-2,8-diazaspiro[4.5]decan-1-one]",3.3 nM
6,"COc1cc(N2CCC3(CCN(C(=O)c4ccc(N5CCN(C)CC5)cc4Cl)CC3)C2=O)ccc1-c1cn[nH]c1 [Example 27, 8-[2-chloro-4-(4-methylpiperazin-1-yl)benzoyl]-2-[3-methoxy-4-(1H-pyrazol-4-yl)phenyl]-2,8-diazaspiro[4.5]decan-1-one]",0.8 nM
7,COc1cc2cc(C(=O)N3CCC4(CC3)CCN(c3ccc(-c5cn[nH]c5)c(OC)c3)C4=O)n(C)c2cc1OC [Example 178],14 nM
8,"COc1cc(CN2CCC(C(=O)N3CCC4(CC3)CCN(c3ccc(-c5cn[nH]c5)c(OC)c3)C4=O)CC2)ccc1F [Example 151, 8-{1-[(4-fluoro-3-methoxyphenyl)methyl]piperidine-4-carbonyl}-2-[3-methoxy-4-(1H-pyrazol-4-yl)phenyl]-2,8-diazaspiro[4.5]decan-1-one]",2470 nM
9,"COc1cc(N2CCC3(CCN(C(=O)c4ccc(N5CCN(Cc6ccc(OCCCN(C)C)cc6)CC5)cc4)CC3)C2=O)ccc1-c1cn[nH]c1 [Example 237, 8-{4-[4-({4-[3-(dimethylamino)propoxy]phenyl}methyl)piperazin-1-yl]benzoyl}-2-[3-methoxy-4-(1H-pyrazol-4-yl)phenyl]-2,8-diazaspiro[4.5]decan-1-one]",0.1 nM
10,"COc1cc(N2CCC3(CCN(C(=O)c4ccc(N5CCN(Cc6cccnc6)CC5)cc4)CC3)C2=O)ccc1-c1cn[nH]c1 [Example 243, 2-[3-methoxy-4-(1H-pyrazol-4-yl)phenyl]-8-(4-{4-[(pyridin-3-yl)methyl]piperazin-1-yl}benzoyl)-2,8-diazaspiro[4.5]decan-1-one]",1 nM
11,"COc1cc(N2CCC3(CCN(C(=O)c4ccc(N5CCN(C(=O)OC(C)(C)C)CC5)cc4)CC3)C2=O)ccc1-c1cn[nH]c1 [Example 205, tert-butyl 4-(4-{2-[3-methoxy-4-(1H-pyrazol-4-yl)phenyl]-1-oxo-2,8-diazaspiro[4.5]decane-8-carbonyl}phenyl)piperazine-1-carboxylate]",8.9 nM
12,"COc1cccc(C(=O)N2CCC3(CC2)CN(c2ccc(-c4cn[nH]c4)cc2)C3=O)c1 [Example 41, 7-(3-methoxybenzoyl)-2-[4-(1H-pyrazol-4-yl)phenyl]-2,7-diazaspiro[3.5]nonan-1-one]",285 nM
13,"COc1ccc(C(=O)N2CCC3(CC2)CCN(c2cccc(-c4ccc5[nH]ncc5c4)c2)C3=O)cc1 [Example 52, 2-[3-(1H-indazol-5-yl)phenyl]-8-(4-methoxybenzoyl)-2,8-diazaspiro[4.5]decan-1-one]",1870 nM
14,"COc1ccc(S(=O)(=O)N2CCC3(CCN(c4ccc(-c5cn[nH]c5)c(OC)c4)C3=O)CC2)cc1F [Example 212, 8-(3-fluoro-4-methoxybenzenesulfonyl)-2-[3-methoxy-4-(1H-pyrazol-4-yl)phenyl]-2,8-diazaspiro[4.5]decan-1-one]",285 nM
15,COc1ccc(C(=O)N2CCC3(CC2)CCN(c2cccc(-c4ccc5cn[nH]c5c4)c2)C3=O)cc1 [Example 50],1680 nM
16,"COc1cc(N2CCC3(CCN(C(=O)c4c[nH]c5ccc(C#N)cc45)CC3)C2=O)ccc1-c1cn[nH]c1 [Example 201, 3-{2-[3-methoxy-4-(1H-pyrazol-4-yl)phenyl]-1-oxo-2,8-diazaspiro[4.5]decane-8-carbonyl}-1H-indole-5-carbonitrile]",718 nM
17,"O=C(c1ccccc1)N1CCC2(CCN(c3ccc(-c4cn[nH]c4)cc3)C2=O)C1 (stereo not drawn) [Example 42, 7-benzoyl-2-[4-(1H-pyrazol-4-yl)phenyl]-2,7-diazaspiro[4.4]nonan-1-one]",1220 nM

# Second part, the compound after the results:
row,IC50,SMILES
1,2460 nM,"COc1ccc(NC(=O)N2CCC3(CC2)CCN(c2ccc(-c4cn[nH]c4)c(OC)c2)C3=O)cc1 [Example 217, 2-[3-methoxy-4-(1H-pyrazol-4-yl)phenyl]-N-(4-methoxyphenyl)-1-oxo-2,8-diazaspiro[4.5]decane-8-carboxamide]"
2,22 nM,"COc1cc(N2CCC3(CCN(C(=O)c4ccc5c(c4)OCC(=O)N5)CC3)C2=O)ccc1-c1cn[nH]c1 [Example 157, 7-{2-[3-methoxy-4-(1H-pyrazol-4-yl)phenyl]-1-oxo-2,8-diazaspiro[4.5]decane-8-carbonyl}-3,4-dihydro-2H-1,4-benzoxazin-3-one]"
3,3 nM,"COc1cc(N2CCC3(CCN(C(=O)c4ccc(N5CCOC5=O)cc4)CC3)C2=O)ccc1-c1cn[nH]c1 [Example 141, 2-[3-methoxy-4-(1H-pyrazol-4-yl)phenyl]-8-[4-(2-oxo-1,3-oxazolidin-3-yl)benzoyl]-2,8-diazaspiro[4.5]decan-1-one]"
4,433 nM,"COc1cc(N2CCC3(CCN(C(=O)c4ccncc4)CC3)C2=O)ccc1-c1cn[nH]c1 [Example 56, 2-[3-methoxy-4-(1H-pyrazol-4-yl)phenyl]-8-(pyridine-4-carbonyl)-2,8-diazaspiro[4.5]decan-1-one]"
5,752 nM,"COc1cc(N2CCC3(CCN(C(=O)c4ccoc4)CC3)C2=O)ccc1-c1cn[nH]c1 [Example 65, 8-(furan-3-carbonyl)-2-[3-methoxy-4-(1H-pyrazol-4-yl)phenyl]-2,8-diazaspiro[4.5]decan-1-one]"
6,104 nM,"COc1cc(N2CCC3(CCN(C(=O)c4ccc5ccccc5c4)CC3)C2=O)ccc1-c1cn[nH]c1 [Example 64, 2-[3-methoxy-4-(1H-pyrazol-4-yl)phenyl]-8-(naphthalene-2-carbonyl)-2,8-diazaspiro[4.5]decan-1-one]"
7,5 nM,"COc1cc(N2CCC3(CCN(C(=O)c4cc5ncc(Br)cn5n4)CC3)C2=O)ccc1-c1cn[nH]c1 [Example 93, 8-{6-bromopyrazolo[1,5-a]pyrimidine-2-carbonyl}-2-[3-methoxy-4-(1H-pyrazol-4-yl)phenyl]-2,8-diazaspiro[4.5]decan-1-one]"
8,118 nM,"COc1ccc2cc(C(=O)N3CCC4(CC3)CCN(c3ccc(-c5cn[nH]c5)c(OC)c3)C4=O)n(C)c2c1 [Example 170, 8-(6-methoxy-1-methyl-1H-indole-2-carbonyl)-2-[3-methoxy-4-(1H-pyrazol-4-yl)phenyl]-2,8-diazaspiro[4.5]decan-1-one]"
9,130 nM,"COc1cc(N2CCC3(CCN(C(=O)c4c(C)cc(C(N)=O)cc4C)CC3)C2=O)ccc1-c1cn[nH]c1 [Example 30, 4-{2-[3-methoxy-4-(1H-pyrazol-4-yl)phenyl]-1-oxo-2,8-diazaspiro[4.5]decane-8-carbonyl}-3,5-dimethylbenzamide]"
10,326 nM,"COc1cc(N2CCC3(CCN(C(=O)c4cccc5ccncc45)CC3)C2=O)ccc1-c1cn[nH]c1 [Example 203, 8-(isoquinoline-8-carbonyl)-2-[3-methoxy-4-(1H-pyrazol-4-yl)phenyl]-2,8-diazaspiro[4.5]decan-1-one]"
11,529 nM,"COc1cc(N2CCC3(CCN(C(=O)c4cc5ccccc5o4)CC3)C2=O)ccc1-c1cn[nH]c1 [Example 70, 8-(1-benzofuran-2-carbonyl)-2-[3-methoxy-4-(1H-pyrazol-4-yl)phenyl]-2,8-diazaspiro[4.5]decan-1-one]"
12,110 nM,"COc1cc(N2CCC3(CCN(C(=O)c4cnc(C)cn4)CC3)C2=O)ccc1-c1cn[nH]c1 [Example 79, 2-[3-methoxy-4-(1H-pyrazol-4-yl)phenyl]-8-(5-methylpyrazine-2-carbonyl)-2,8-diazaspiro[4.5]decan-1-one]"
13,78 nM,"COc1cc(N2CCC3(CCN(C(=O)c4cnc5ccccc5c4)CC3)C2=O)ccc1-c1cn[nH]c1 [Example 74, 2-[3-methoxy-4-(1H-pyrazol-4-yl)phenyl]-8-(quinoline-3-carbonyl)-2,8-diazaspiro[4.5]decan-1-one]"
14,17 nM,"COc1cc(N2CCC3(CCN(C(=O)c4ccc(CN5CCCC5)cc4)CC3)C2=O)ccc1-c1cn[nH]c1 [Example 168, 2-[3-methoxy-4-(1H-pyrazol-4-yl)phenyl]-8-{4-[(pyrrolidin-1-yl)methyl]benzoyl}-2,8-diazaspiro[4.5]decan-1-one]"
15,33 nM,"COc1cc(N2CCC3(CCN(C(=O)c4ccc5cnccc5c4)CC3)C2=O)ccc1-c1cn[nH]c1 [Example 166, 8-(isoquinoline-6-carbonyl)-2-[3-methoxy-4-(1H-pyrazol-4-yl)phenyl]-2,8-diazaspiro[4.5]decan-1-one]"
16,2250 nM,"COc1cccc(NC(=O)N2CCC3(CC2)CCN(c2ccc(-c4cn[nH]c4)c(OC)c2)C3=O)c1 [Example 216, 2-[3-methoxy-4-(1H-pyrazol-4-yl)phenyl]-N-(3-methoxyphenyl)-1-oxo-2,8-diazaspiro[4.5]decane-8-carboxamide]"
